From the supplement of paper PMC11208160

Assay: recombinant UMI read abundance after kanamycin selection (control-corrected) (log10(CPM+1)); higher = more efficient recombination; extreme values may be limits of the assay; sequences stand for … in AGTGCAGAGAAAATCGGCCAGTTTTCTCTGCCTGCAGTCCGCATGCCGTGGGACCCCTTGGGTTCTAACCTGTTGCCTAGATTTATGCAGCGGACTGCCTTTCTCCCAAAGTGATAAACCGG…AGGTTGGTTTCACT; site = the 11-nt donor
Summary of the method: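 For the IS621 bridge recombinase, a pooled Escherichia coli screen tested donor and donor-binding-loop pairs. Cells received the pair library together with a target plasmid encoding a fixed target and T7-inducible recombinase, then went onto IPTG (0.07 mM) plus kanamycin or unselected plates in duplicate. After PCR across the donor–target junction and sequencing, recombinant UMI counts were normalized to CPM, averaged, and scaled by control-derived factors. Each value is given as log10(CPM+1).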
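Further: IS621 bridge recombinase in Escherichia coli cells against a fixed T5 target plasmid.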

Sequence | recombinant UMI read abundance (log10)
ACTTCTACATGGACCGGTTTTCCCGGTAATCCGTATTTGTG (site ACGTCTACTCA) | 0.0444
ACTTCTACATGGACCGGTTTTCCCGGTAATCCGTATTTGTG (site ACTTCTACTCA) | 0.179
ACTTGTGCATGGACCGGTTTTCCCGGTAATCCGTATTTGGT (site ACTAGTGCTAC) | 0.652
ACTTGTGCATGGACCGGTTTTCCCGGTAATCCGTATTTGGT (site ACTCGTGCTAC) | 0.73
ACTTGTGCATGGACCGGTTTTCCCGGTAATCCGTATTTGGT (site ACTGGTGCTAC) | 0.211
ACTTGTGCATGGACCGGTTTTCCCGGTAATCCGTATTTGGT (site ACTTGTGCTAC) | 1.18
ACTTTACCATGGACCGGTTTTCCCGGTAATCCGTATTTGCT (site ACTTTACCTAG) | 0.431
ACTTTATCATGGACCGGTTTTCCCGGTAATCCGTATTTGCA (site ACAGTATCTTG) | 2.35
ACTTTATCATGGACCGGTTTTCCCGGTAATCCGTATTTGCA (site ACTTTATCTTG) | 1.85
AGAAACACATGGACCGGTTTTCCCGGTAATCCGTATTTGTC (site AGAAACACTGA) | 2.8
AGAAAGACATGGACCGGTTTTCCCGGTAATCCGTATTTGCT (site AGAAAGACTAG) | 2.1
AGAAAGACATGGACCGGTTTTCCCGGTAATCCGTATTTGCT (site AGAAAGCCTAG) | 0.934
AGAAAGACATGGACCGGTTTTCCCGGTAATCCGTATTTGCT (site AGAAAGGCTAG) | 1.02
AGAAAGACATGGACCGGTTTTCCCGGTAATCCGTATTTGCT (site AGAAAGTCTAG) | 0.572
AGAAAGGCATGGACCGGTTTTCCCGGTAATCCGTATTTGCA (site AGAAAGGCTAG) | 0
AGAAAGGCATGGACCGGTTTTCCCGGTAATCCGTATTTGCA (site AGAAAGGCTCG) | 0.889
AGAAAGGCATGGACCGGTTTTCCCGGTAATCCGTATTTGCA (site AGAAAGGCTGG) | 0
AGAAAGGCATGGACCGGTTTTCCCGGTAATCCGTATTTGCA (site AGAAAGGCTTG) | 1.9
AGAAATGCATGGACCGGTTTTCCCGGTAATCCGTATTTGCT (site AGAAAAGCTAG) | 1.53
AGAAATGCATGGACCGGTTTTCCCGGTAATCCGTATTTGCT (site AGAAACGCTAG) | 1.8
AGAAATGCATGGACCGGTTTTCCCGGTAATCCGTATTTGCT (site AGAAAGGCTAG) | 0
AGAAATGCATGGACCGGTTTTCCCGGTAATCCGTATTTGCT (site AGAAATGCTAG) | 2.23
AGAAATTCATGGACCGGTTTTCCCGGTAATCCGTATTTGCG (site AGAAATTCTCG) | 1.94

Sequence | recombinant UMI read abundance (log10)
AGAACCGCATGGACCGGTTTTCCCGGTAATCCGTATTTGAC (site AGAACCGCTGT) | 2.35
AGAACGGCATGGACCGGTTTTCCCGGTAATCCGTATTTGCG (site AGAACGGCTCG) | 1.75
AGAACTACATGGACCGGTTTTCCCGGTAATCCGTATTTGGG (site AGAACTACTCC) | 0.434
AGAAGCACATGGACCGGTTTTCCCGGTAATCCGTATTTGTC (site AGAAGCACTGA) | 3.13
AGAAGCCCATGGACCGGTTTTCCCGGTAATCCGTATTTGTC (site AGAAGCCCTGA) | 1.43
AGAAGGCCATGGACCGGTTTTCCCGGTAATCCGTATTTGAC (site AAAAGGCCTGT) | 0
AGAAGGCCATGGACCGGTTTTCCCGGTAATCCGTATTTGAC (site ACAAGGCCTGT) | 0
AGAAGGCCATGGACCGGTTTTCCCGGTAATCCGTATTTGAC (site AGAAGGCCTGT) | 0
AGAAGGCCATGGACCGGTTTTCCCGGTAATCCGTATTTGAC (site ATAAGGCCTGT) | 0
AGAATGGCATGGACCGGTTTTCCCGGTAATCCGTATTTGCT (site AGAAAGGCTAG) | 1.89
AGAATGGCATGGACCGGTTTTCCCGGTAATCCGTATTTGCT (site AGAACGGCTAG) | 1.47
AGAATGGCATGGACCGGTTTTCCCGGTAATCCGTATTTGCT (site AGAAGGGCTAG) | 0.34
AGAATGGCATGGACCGGTTTTCCCGGTAATCCGTATTTGCT (site AGAATGGCTAG) | 2.19
AGACAGGCATGGACCGGTTTTCCCGGTAATCCGTATTTGCT (site AGAAAGGCTAG) | 0
AGACAGGCATGGACCGGTTTTCCCGGTAATCCGTATTTGCT (site AGACAGGCTAG) | 2.44
AGACAGGCATGGACCGGTTTTCCCGGTAATCCGTATTTGCT (site AGAGAGGCTAG) | 0
AGACAGGCATGGACCGGTTTTCCCGGTAATCCGTATTTGCT (site AGATAGGCTAG) | 0.555
AGACTTGCATGGACCGGTTTTCCCGGTAATCCGTATTTGCA (site AGACTTGCTTG) | 0
AGACTTTCATGGACCGGTTTTCCCGGTAATCCGTATTTGAC (site AGACTTTCTGT) | 0
AGACTTTCATGGACCGGTTTTCCCGGTAATCCGTATTTGAC (site AGCCTTTCTGT) | 0
AGACTTTCATGGACCGGTTTTCCCGGTAATCCGTATTTGAC (site AGGCTTTCTGT) | 0.503
AGACTTTCATGGACCGGTTTTCCCGGTAATCCGTATTTGAC (site AGTCTTTCTGT) | 0
AGAGCATCATGGACCGGTTTTCCCGGTAATCCGTATTTGAA (site AGAGCATCTTT) | 2.33

Sequence | recombinant UMI read abundance (log10)
AGAGCCCCATGGACCGGTTTTCCCGGTAATCCGTATTTGCA (site AGAGCCCCTTG) | 1.71
AGAGGACCATGGACCGGTTTTCCCGGTAATCCGTATTTGGG (site AGAGGACCTCC) | 0.0119
AGAGGACCATGGACCGGTTTTCCCGGTAATCCGTATTTGGG (site CGAGGACCTCC) | 0.0261
AGAGGACCATGGACCGGTTTTCCCGGTAATCCGTATTTGGG (site GGAGGACCTCC) | 0.0142
AGAGGACCATGGACCGGTTTTCCCGGTAATCCGTATTTGGG (site TGAGGACCTCC) | 0.0116
AGAGTATCATGGACCGGTTTTCCCGGTAATCCGTATTTGTG (site AGAGTATCTCA) | 2.98
AGATAATCATGGACCGGTTTTCCCGGTAATCCGTATTTGTC (site AGATAATCTGA) | 2.16
AGATAGGCATGGACCGGTTTTCCCGGTAATCCGTATTTGCA (site AGATAGGCTTG) | 2.72
AGATCATCATGGACCGGTTTTCCCGGTAATCCGTATTTGTT (site AGATCATCTAA) | 0.929
AGATCATCATGGACCGGTTTTCCCGGTAATCCGTATTTGTT (site CGATCATCTAG) | 0
AGATCCGCATGGACCGGTTTTCCCGGTAATCCGTATTTGGT (site AGATCCGCTAC) | 0.811
AGATGGCCATGGACCGGTTTTCCCGGTAATCCGTATTTGTG (site AGATGGCCTCA) | 0.0259
AGATTATCATGGACCGGTTTTCCCGGTAATCCGTATTTGCA (site ACAGTATCTTG) | 2.54
AGATTATCATGGACCGGTTTTCCCGGTAATCCGTATTTGCA (site AGATTATCTTG) | 2.9
AGATTCGCATGGACCGGTTTTCCCGGTAATCCGTATTTGGA (site AGATTCGCTTC) | 1.89
AGATTTACATGGACCGGTTTTCCCGGTAATCCGTATTTGGA (site AGATTTACTTC) | 0.959
AGCAAAACATGGACCGGTTTTCCCGGTAATCCGTATTTGCA (site AGCAAAACTTG) | 0.735
AGCAAGGCATGGACCGGTTTTCCCGGTAATCCGTATTTGCA (site AGCAAGGCTTG) | 2.5
AGCAAGGCATGGACCGGTTTTCCCGGTAATCCGTATTTGCA (site AGGAAGACTTG) | 0.0151
AGCACAGCATGGACCGGTTTTCCCGGTAATCCGTATTTGAC (site AGCACAGCTGT) | 2.8
AGCACAGCATGGACCGGTTTTCCCGGTAATCCGTATTTGGG (site AGCACAGCTCC) | 0.0126
AGCACAGCATGGACCGGTTTTCCCGGTAATCCGTATTTGGG (site AGCCCAGCTCC) | 0.00716
